Measured values taken from patent US7989451B2, “Tricyclic 1,2,4-triazine oxides and compositions for therapeutic use in cancer treatments” (Auckland Uniservices Limited, priority 2005, dated 2011).
Where a name gives a salt, the structure may show the parent alone. Read-outs that look alike come from different tables or passages of the source.

How the values were obtained:
[1] = tested on: human cervical carcinoma SiHa; assay: Proliferation assay (IC50) under aerobic and hypoxic conditions, SiHa; assay type: cell-based; conditions: for IC50: 4 h drug exposure, sulforhodamine B; for HCR: hypoxic cytotoxicity ratio = IC50 aerobic/IC50 hypoxic
Method: (§1) Compounds representative of the invention were evaluated under both aerobic and hypoxic conditions in a proliferation assay (IC50), using two cell lines: human colon carcinoma HT29, and human cervical carcinoma SiHa (Table 1).
(§2) Drug exposures were performed in 96-well plates (Nunc) either using a 37 DC humidified incubator (20% O2, 5% CO2) or in the incubator compartment (37° C.) of an anaerobic chamber (Shell Lab) where palladium catalyst scrubbed gas (90% N2, 5% H2, 5% CO2) ensures severe anoxia (<0.001% O2). For each experiment, compounds were simultaneously tested under both oxic and hypoxic conditions and included TPZ as an internal control. An 8-methyl-5-nitroquinoline derivative, SN 24349, known to require very low oxygen concentrations for bioactivation (Siim et al., Br. J. Cancer 1994, 70, 596-603) was used to confirm that strict hypoxia was present during the experiment. […] Cell cultures were grown in αMEM (Gibco) containing 5% heat inactivated FCS and maintained in exponential growth phase. For each individual experiment an appropriate number of cells were seeded (HT29=1100; SiHa=1500) into wells in αMEM+10% FCS+10 mM added glucose+100 μM 2′-deoxycytidine (2′dCyd), and allowed to attach for 2-3 h. High glucose (final concentration 17 mM) and the presence of 2′-dCyd minimize hypoxia-induced cell cycle arrest. Cultures were then exposed to drugs, using 3-fold serial dilutions in duplicate, for a further 4 h. Subsequently cells were washed free of compound using complete media (without glucose/2′-dCyd) and allowed to grow for 5 (oxic) or 6 (anoxic) days. Plates were stained with sulforhodamine B as described previously (Wilson et al., J. Med. Chem. 1989, 32, 31-38) and IC50 values determined.
(§3) HCR=Hypoxic cytotoxicity ratio is defined as the ratio of IC50 values under aerobic and hypoxic conditions (IC50 aerobic/IC50 hypoxic).

[2] = tested on: human colon carcinoma HT29; assay: Proliferation assay (IC50) under aerobic and hypoxic conditions, HT29; assay type: cell-based; conditions: for IC50: 4 h drug exposure, sulforhodamine B; for HCR: hypoxic cytotoxicity ratio = IC50 aerobic/IC50 hypoxic
Method: as §1, §2, §3

[3] = Homo sapiens, hypoxic (anaerobic chamber, <0.001% O2), then 6 days growth, read-out: IC50 (μM) hypoxic
[4] = Homo sapiens, oxic (20% O2), then 5 days growth, read-out: IC50 (μM) oxic
[5] = Homo sapiens, HT-29, hypoxic (anaerobic chamber, <0.001% O2), then 6 days growth, read-out: IC50 (μM) hypoxic
[6] = Homo sapiens, HT-29, oxic (20% O2), then 5 days growth, read-out: IC50 (μM) oxic
[7] = hypoxic (anaerobic chamber, <0.001% O2), then 6 days growth, read-out: IC50 (μM) hypoxic
[8] = oxic (20% O2), then 5 days growth, read-out: IC50 (μM) oxic

SMILES	melting point [°C]	IC50 [1, 3] [µM]	IC50 [1, 4] [µM]	IC50 [2, 5] [µM]	IC50 [2, 6] [µM]	IC50 [1, 7] [µM]	IC50 [1, 8] [µM]	IC50 [2, 7] [µM]	IC50 [2, 8] [µM]	HCR [1]	HCR [2]
N#CC1CCN(CCCNc2nc3cc4c(cc3[n+]([O-])n2)CCC4)C1 (stereo not drawn) [Compound 56, 1-{3-[(1-Oxido-7,8-dihydro-6H-indeno[5,6-e][1,2,4]triazin-3-yl)amino]propyl}-3-pyrrolidinecarbonitrile]	111 to 112	–	–	–	–	–	–	–	–	–	–
CCc1n[n+]([O-])c2c3c(ccc2[n+]1[O-])CCN(C)C3 [Compound 265, 3-Ethyl-9-methyl-7,8,9,10-tetrahydro[1,2,4]triazino[5,6-h]isoquinoline 1,4-Dioxide]	117 to 121	–	–	–	–	–	–	–	–	–	–
CN(C)CCNc1nc2cc3c(cc2[n+]([O-])n1)OCCC3 [Compound 241, N^1,N^1-Dimethyl-N^2-(1-oxido-7,8-dihydro-6H-chromeno[6,7-e][1,2,4]triazin-3-yl)-1,2-ethanediamine]	150 to 152	–	–	–	–	–	–	–	–	–	–
[O-][n+]1nc(NCCCCN2CCOCC2)nc2cc3c(cc21)CCC3 [Compound 62, N-[4-(4-Morpholinyl)butyl]-7,8-dihydro-6H-indeno[5,6-e][1,2,4]triazin-3-amine 1-Oxide]	151 to 152	–	–	–	–	–	–	–	–	–	–
CN(C)CCNc1n[n+]([O-])c2c3c(ccc2[n+]1[O-])CCCC3 [Compound 173, N^1-(1,4-Dioxido-7,8,9,10-tetrahydronaphtho[2,1-e][1,2,4]triazin-3-yl)-N^2,N^2-dimethyl-1,2-ethanediamine]	–	1	62	3.4	60.5	–	–	–	–	64	18
[O-][n+]1nc(NCCCN2CCOCC2)[n+]([O-])c2ccc3c(c21)CCC3 [Compound 15, N-[3-(1-Morpholinyl)propyl]-8,9-dihydro-7H-indeno[5,4-e][1,2,4]triazin-3-amine 1,4-Dioxide]	–	–	–	–	–	13.9	460	37.6	902	33	24
COC1CN(CCCc2n[n+]([O-])c3cc4c(cc3[n+]2[O-])CCC4)C1 [Compound 83, 3-[3-(3-Methoxy-1-azetidinyl)propyl]-7,8-dihydro-6H-indeno[5,6-e][1,2,4]triazine 1,4-Dioxide]	–	0.58 ± 0.19	300 ± 162	1.3 ± 0.2	262 ± 83	–	–	–	–	640 ± 411	249 ± 129
[O-][n+]1nc(CCCN2CCCCC2)[n+]([O-])c2cc3c(cc21)CCC3 [Compound 87, 3-[3-(1-Piperidinyl)propyl]-7,8-dihydro-6H-indeno[5,6-e][1,2,4]triazine 1,4-Dioxide]	–	0.26 ± 0.08	219 ± 96	0.37 ± 0.05	202 ± 72	–	–	–	–	1000 ± 431	598 ± 233
N#CC1CCN(CCCNc2n[n+]([O-])c3cc4c(cc3[n+]2[O-])CCC4)C1 (stereo not drawn) [Compound 57, 1-{3-[(1,4-Dioxido-7,8-dihydro-6H-indeno[5,6-e][1,2,4]triazin-3-yl)amino]propyl}-3-pyrrolidinecarbonitrile]	–	10.4 ± 0.6	231 ± 64	22 ± 1	87 ± 3	–	–	–	–	22 ± 6	4 ± 0.1
[O-][n+]1nc(CCCN2CCCC2)[n+]([O-])c2cc3c(cc21)CCC3 [Compound 85, 3-[3-(1-Pyrrolidinyl)propyl]-7,8-dihydro-6H-indeno[5,6-e][1,2,4]triazine 1,4-Dioxide]	–	0.35 ± 0.01	133 ± 42	0.63 ± 0.05	161 ± 48	–	–	–	–	385 ± 125	249 ± 55
CN(C)CCCc1n[n+]([O-])c2cc3c(cc2[n+]1[O-])CCC3 [Compound 79, N-[3-(1,4-Dioxido-7,8-dihydro-6H-indeno[5,6-e][1,2,4]triazin-3-yl)propyl]-N,N-dimethylamine]	–	0.32 ± 0.09	194 ± 120	0.54 ± 0.07	195 ± 99	–	–	–	–	738 ± 523	386 ± 213
[O-][n+]1nc(NCCN2CCOCC2)[n+]([O-])c2cc3c(cc21)CCC3 [Compound 45, N-[2-(4-Morpholinyl)ethyl]-7,8-dihydro-6H-indeno[5,6-e][1,2,4]triazin-3-amine 1,4-Dioxide]	–	9.9 ± 1.4	245 ± 60	19 ± 2	310 ± 109	–	–	–	–	28 ± 11	17 ± 6
COC1CCCN(CCNc2n[n+]([O-])c3cc4c(cc3[n+]2[O-])CCC4)C1 (stereo not drawn) [Compound 41, N-[2-(3-Methoxy-1-piperidinyl)ethyl]-7,8-dihydro-6H-indeno[5,6-e][1,2,4]triazin-3-amine 1,4-Dioxide]	–	46 ± 11	1750 ± 148	93 ± 11	1390 ± 349	–	–	–	–	46 ± 17	19 ± 0.3
[O-][n+]1nc(NCCCN2CCOCC2)[n+]([O-])c2cc3c(cc21)OCCC3 [Compound 244, N-[3-(4-Morpholinyl)propyl]-7,8-dihydro-6H-chromeno[6,7-e][1,2,4]triazin-3-amine 1,4-Dioxide]	–	3.6 ± 0.5	145 ± 29	11 ± 3	188 ± 51	–	–	–	–	41 ± 10	19 ± 5

Second part, led by results:

melting point [°C]	IC50 [1, 3] [µM]	IC50 [1, 4] [µM]	IC50 [2, 5] [µM]	IC50 [2, 6] [µM]	IC50 [1, 7] [µM]	IC50 [1, 8] [µM]	IC50 [2, 7] [µM]	IC50 [2, 8] [µM]	SMILES	HCR [1]	HCR [2]
139 to 141	–	–	–	–	–	–	–	–	COC1CN(CCNc2nc3cc4c(cc3[n+]([O-])n2)CCC4)C1 [Compound 34, N-[2-(3-Methoxy-1-azetidinyl)ethyl]-7,8-dihydro-6H-indeno[5,6-e][1,2,4]triazin-3-amine 1-Oxide]	–	–
–	2.6 ± 0.5	127 ± 14	6.3 ± 0.8	158 ± 19	–	–	–	–	[O-][n+]1nc(NCCCN2CCOCC2)[n+]([O-])c2cc3c(cc21)CCCC3 [Compound 180, N-[3-(4-Morpholinyl)propyl]-6,7,8,9-tetrahydronaphtho[2,3-e][1,2,4]triazin-3-amine 1,4-Dioxide]	54 ± 16	25 ± 3
–	1.3	95 ± 12	3.6 ± 1.1	121 ± 21	–	–	–	–	CCc1n[n+]([O-])c2cc3c(cc2[n+]1[O-])CC(CCN1CCOCC1)C3 (stereo not drawn) [Compound 164, 3-Ethyl-7-[2-(4-morpholinyl)ethyl]-7,8-dihydro-6H-indeno[5,6-e][1,2,4]triazine 1,4-Dioxide]	84	36 ± 5
210 to 212	–	–	–	–	–	–	–	–	[O-][n+]1nc(CCCN2CCOCC2)nc2cc3c(cc21)CC(CO)C3 (stereo not drawn) (as salt: hydrochloride) [Compound 140, {3-[3-(4-Morpholinyl)propyl]-1-oxido-7,8-dihydro-6H-indeno[5,6-e][1,2,4]triazin-7-yl}methanol]	–	–
–	1.1	143	4.2	254	–	–	–	–	CCN(CC)CCNc1n[n+]([O-])c2cc3c(cc2[n+]1[O-])CCC3 [Compound 27, N^1-(1,4-Dioxido-7,8-dihydro-6H-indeno[5,6-e][1,2,4]triazin-3-yl)-N^2,N^2-diethyl-1,2-ethanediamine]	133	61
140 to 142	–	–	–	–	–	–	–	–	CC1Cc2cc3nc(I)n[n+]([O-])c3cc2C1 (stereo not drawn) [Compound 100, 3-Iodo-7-methyl-7,8-dihydro-6H-indeno[5,6-e][1,2,4]triazine 1-Oxide]	–	–
–	2.8 ± 1.2	217 ± 52	7.1 ± 0.6	399 ± 148	–	–	–	–	[O-][n+]1nc(NCCN2CCCOCC2)[n+]([O-])c2cc3c(cc21)CCC3 [Compound 49, N-[2-(1,4-Oxazepan-4-yl)ethyl]-7,8-dihydro-6H-indeno[5,6-e][1,2,4]triazin-3-amine 1,4-Dioxide]	86 ± 18	58 ± 26
–	0.85	36 ± 32	1.5	6.2	–	–	–	–	CCN1Cc2cc3c(cc2C1)[n+]([O-])c(N)n[n+]3[O-] [Compound 250, 7-Ethyl-7,8-dihydro-6H-[1,2,4]triazino[5,6-f]isoindol-3-amine 1,4-Dioxide]	80	–
–	0.67	43.8	4.1	59.1	–	–	–	–	CN(C)CCNc1n[n+]([O-])c2c3c(ccc2[n+]1[O-])OCCC3 [Compound 237, N^1-(1,4-Dioxido-9,10-dihydro-8H-chromeno[6,5-e][1,2,4]triazin-3-yl)-N^2,N^2-dimethyl-1,2-ethanediamine]	66	14
